Non-standard residues stand in square brackets, D forms with d. Residues, ends and D or L forms follow the SMILES beside them. *: point of attachment. X2 = c1ccc(-c2cn(CC3CCCCC3)c([C@@H]3CCCN3*)n2)cc1; Ala(cPent) = N[C@@H](CC1CCCC1)C(=O)O; Pentanoyl(4-Me) = CC(C)CCC(=O)*; Dap = NC[C@H](N)C(=O)O
Assays:
MOLM-13 = experiment: cells; details: Homo sapiens, MOLM-13, 192 h
Description: Anticancer activity against human MOLM-13 cells harbouring MLL-AF9 assessed as inhibition of cell growth treated for 8 days measured by CCK-8 kit method

[1] = Stability in human plasma assessed as compound remaining measured upto 1440 mins by HPLC analysis; assay type: ADME, cell-free; details: read-out: Stability
Protein ENL = biological target: T1, Protein ENL (Homo sapiens, UniProt Q03111); experiment: Binding affinity to MBP-tagged human recombinant ENL (489 to 559 residues) incubated for 40 mins by measuring fluorescence polarization by microplate reader method
T1 sequence (Q03111 whole entry): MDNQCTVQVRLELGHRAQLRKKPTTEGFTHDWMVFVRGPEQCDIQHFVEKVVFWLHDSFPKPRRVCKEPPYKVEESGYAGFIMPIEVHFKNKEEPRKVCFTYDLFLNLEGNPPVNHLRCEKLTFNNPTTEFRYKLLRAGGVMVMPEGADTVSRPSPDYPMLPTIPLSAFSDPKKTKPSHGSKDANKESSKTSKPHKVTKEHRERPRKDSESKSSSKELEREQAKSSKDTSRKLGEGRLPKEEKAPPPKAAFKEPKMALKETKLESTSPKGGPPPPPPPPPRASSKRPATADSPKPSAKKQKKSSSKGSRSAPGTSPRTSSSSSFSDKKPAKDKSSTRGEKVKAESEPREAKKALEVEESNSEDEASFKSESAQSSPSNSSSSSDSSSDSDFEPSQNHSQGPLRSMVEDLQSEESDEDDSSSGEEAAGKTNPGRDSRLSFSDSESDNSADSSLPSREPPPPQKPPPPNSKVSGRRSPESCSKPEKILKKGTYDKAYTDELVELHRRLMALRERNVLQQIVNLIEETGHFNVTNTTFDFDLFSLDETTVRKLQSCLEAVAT

[2] = Apparent permeability across apical to basolateral side in human Caco-2 cells; assay type: ADME, cell-based
KOPN-8 = experiment: cells; details: Homo sapiens, KOPN-8, 192 h
Description: Anticancer activity against human KOPN-8 cells harbouring MLL-ENL assessed as inhibition of cell growth treated for 8 days measured by CCK-8 kit method

IC50 (MOLM-13): 3.2 µM
remaining at 24 h [1]: 94%
Ki (Protein ENL): 0.24 µM
Papp A→B [2]: 7.3 nm/s
IC50 (KOPN-8): 2.21 µM
Structure (SMILES): CC(C)CCC(=O)N1CCC[C@H]1C(=O)N[C@H](C(=O)N[C@@H](CN)C(=O)N[C@@H](CC1CCCC1)C(=O)N1CCC[C@H]1c1nc(-c2ccccc2)cn1CC1CCCCC1)C(C)C ({Pentanoyl(4-Me)}-PV[Dap][Ala(cPent)]-X2)

Source: ChEMBL document CHEMBL5154930, “Design, Synthesis, and Biological Evaluations of DOT1L Peptide Mimetics Targeting the Protein-Protein Interactions between DOT1L and MLL-AF9/MLL-ENL” (J Med Chem, 2022)
